# Assay results reported in BindingDB's records for patent US20240287022 (Merck Sharp & Dohme, 2024).
# Target: T1, L-amino-acid oxidase (Homo sapiens, UniProt Q96RQ9)
# T1 sequence (Q96RQ9 whole entry): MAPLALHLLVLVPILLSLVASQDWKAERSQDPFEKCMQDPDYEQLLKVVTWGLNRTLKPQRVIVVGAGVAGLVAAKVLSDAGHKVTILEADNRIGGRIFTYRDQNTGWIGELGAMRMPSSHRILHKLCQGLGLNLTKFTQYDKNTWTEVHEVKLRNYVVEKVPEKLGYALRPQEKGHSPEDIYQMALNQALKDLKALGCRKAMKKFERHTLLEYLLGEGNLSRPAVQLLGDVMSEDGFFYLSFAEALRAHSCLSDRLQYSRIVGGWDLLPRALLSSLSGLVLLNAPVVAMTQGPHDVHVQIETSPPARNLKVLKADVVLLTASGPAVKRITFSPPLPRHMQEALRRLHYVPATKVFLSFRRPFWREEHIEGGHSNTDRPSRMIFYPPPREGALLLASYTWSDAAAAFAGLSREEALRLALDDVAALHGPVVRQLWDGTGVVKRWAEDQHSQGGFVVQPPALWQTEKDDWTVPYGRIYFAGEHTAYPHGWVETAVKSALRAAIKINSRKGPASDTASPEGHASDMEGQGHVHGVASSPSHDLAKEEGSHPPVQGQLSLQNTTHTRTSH
# Test: IL4I1 Enzymatic Assay
# Method: nterleukin 4 inducible protein 1 (IL4I1) is an L-amino oxidase that catalyzes the oxidation of aromatic residues (Phe, Trp and Tyr): L-amino acid+H2O+O2→2-oxo acid+NH3+H2O2. Equal molar of H2O2 and the corresponding alpha-ketoacid are produced when IL4I1 and substrate are added. In this assay, the hydrogen peroxide generated by IL4I1 are then detected through a coupled reaction with Amplex Red (10-acetyl-3,7-dihydroxyphenoxazine) and […] (HRP) to produce Resorufin product that could be detected in the form of fluorescence signals. The assessment of the inhibitory effect of small molecules (EC50) on IL4I1 is measured by the effectiveness of the compounds to inhibit the production of H2O2.Using this assay, the potency (EC50) of each compound was determined from a ten-point (1:3 serial dilution; top compound concentration of 10000 nM) titration curve using the following outlined procedure. To each well of a black flat-bottom Greiner (Cat #781076) 384 well-plate, 25 nL of compound (0.1% DMSO in final assay volume of 25 μL) was dispensed, followed by the addition of 12.5 μL of 1× assay buffer (50 mM Hepes 7.0 and 0.005% Tween20 (Sigma, Cat #P8341; low peroxide grade)) containing 2 nM of recombinant IL4I1 (R&D Systems, Cat #5684-AO-020). Plates were placed in an ambient temperature humidified chamber for a four-hour pre-incubation with compound. Subsequently, each reaction was initiated by the addition of 12.5 μL 1× assay buffer containing 2 mM of each aromatic amino acids (Phe/Tyr/Trp), 0.1 mM Amplex Red and 2 U/mL of HRP. The final reaction in each well of 25 μL consists of 1 nM of IL4I1, 1 mM of each residues (Phe, Tyr and Trp), 0.05 mM Amplex Red and 1 U/mL of HRP. It should be noted that the concentrations of Amplex Red and HRP used here are in excess such that the conversion of H2O2 to Resorufin product occurs instantaneously and non-rate limiting.
row,EC50,SMILES
1,8.2 nM,"O=c1[nH]c2ccccc2cc1Cc1ccc(C2(F)CNC2)cc1 [US20240287022, Example 76]"
2,14.4 nM,"N#CCc1ccc(Cc2cc3ccccc3[nH]c2=O)cn1 [US20240287022, Example 93]"
3,1.5 nM,"O=c1[nH]c2ccncc2cc1Cc1ccc2scnc2c1 [US20240287022, Example 114]"
4,154 nM,"Cn1c(=O)c(Cc2ccc(Cc3nnco3)cc2)cc2ccccc21 [US20240287022, Example 145]"
